The source of these data is publication PMC4731831, “Better than Nature: Nicotinamide Biomimetics That Outperform Natural Coenzymes” (Journal of the American Chemical Society, 2016).

The test has as its target T1, TsOYE (Thermus scotoductus, UniProt B0JDW3).
T1 construct: gene chrR; overexpressed ene reductase with FMN; construct only in supplement
The experiment in a line: anaerobic stopped-flow flavin reduction. It is filed as biochemical. The conditions noted are these: apparent; reductive half-reaction; 50 mM MOPS pH 7.0, 5 mM CaCl2, 30 °C. The text has this:
anaerobic stopped-flow flavin reduction on TsOYE

For `NC(=O)C1=CN([C@@H]2O[C@H](COP(=O)(O)OP(=O)(O)OC[C@H]3O[C@@H](n4cnc5c(N)ncnc54)[C@H](O)[C@@H]3O)[C@@H](O)[C@H]2O)C=CC1` [NADH], the Kd turned out to be 8 ± 0.7 µM.

In the case of `NC(=O)C1=CN([C@@H]2O[C@H](COP(=O)(O)OP(=O)(O)OC[C@H]3O[C@@H](n4cnc5c(N)ncnc54)[C@H](OP(=O)(O)O)[C@@H]3O)[C@@H](O)[C@H]2O)C=CC1` [NADPH], the Kd was 9 ± 0.6 µM.

`NC(=O)C1=CN(Cc2ccccc2)C=CC1` [compound 1, biomimetic 1]: the Kd turned out to be 227 ± 5 µM.

On to `CCCCN1C=CCC(C(N)=O)=C1` [compound 2, biomimetic 2], for which the Kd came out at 406 ± 12 µM.
